Assay results as given in patent US12312359B2 (Vitae Pharmaceuticals, LLC, priority 2016, dated 2025).

Key:
[1] = target: T1, biotinylated wild-type menin and MLL-AF9 fusion protein (menin/MLL binding) (Homo sapiens, UniProt O00255); assay: Assay 1: menin/MLL binding AlphaLISA assay, wild-type menin; details: Table 30; column head does not say wild-type or mutated menin
T1 construct: made in house; host or cells: menin: E. coli; MLL-AF9-FLAG: HEK293 cells, used as cleared lysate
T1 sequence (O00255 1-610): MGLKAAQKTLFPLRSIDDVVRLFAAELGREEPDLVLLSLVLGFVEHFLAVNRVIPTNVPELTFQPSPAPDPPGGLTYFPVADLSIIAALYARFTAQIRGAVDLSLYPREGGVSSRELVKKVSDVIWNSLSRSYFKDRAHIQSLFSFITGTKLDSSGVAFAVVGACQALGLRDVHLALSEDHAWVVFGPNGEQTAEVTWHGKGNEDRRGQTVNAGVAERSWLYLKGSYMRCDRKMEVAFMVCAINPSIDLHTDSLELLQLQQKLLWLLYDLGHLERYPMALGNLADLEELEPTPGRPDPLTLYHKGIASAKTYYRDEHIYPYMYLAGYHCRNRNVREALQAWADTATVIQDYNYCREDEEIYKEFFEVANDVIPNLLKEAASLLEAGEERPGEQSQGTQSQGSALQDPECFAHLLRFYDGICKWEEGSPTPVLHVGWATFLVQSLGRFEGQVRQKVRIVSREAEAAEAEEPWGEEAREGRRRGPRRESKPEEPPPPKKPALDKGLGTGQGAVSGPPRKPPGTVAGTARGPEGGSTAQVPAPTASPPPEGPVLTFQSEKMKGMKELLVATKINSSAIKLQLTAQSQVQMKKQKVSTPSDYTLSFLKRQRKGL
Outline: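 Compound was preincubated 30 min at room temperature with biotinylated menin (5 nM) and MLL-AF9-FLAG lysate from HEK293 cells, pH 7.4 buffer with 5% DMSO and DTT. Bead-based Alpha signal after 60 min with streptavidin donor and anti-FLAG acceptor beads; four-parameter logistic fit gave IC50.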

[2] = test system: human acute monocytic leukemia cell line MV-4-11; assay: Assay 2: cell proliferation assay (ATP quantitation, CellTiter-Glo), MV-4-11; type: cell-based; details: MV-4-11 cells
Outline: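 MV-4-11 cells, 1.67×10^4 per well in medium with 10% FBS, were exposed to compound for 72 h at 37° C., 5% CO2; HL-60 cells served as toxicity control. Proliferation read as ATP content by CellTiter-Glo luminescence.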

With CC(C)c1ccccc1-c1cc(F)ccc1Oc1cncnc1N1CCC2(CCN(Cc3ccc4[nH]c(=O)[nH]c4c3)C2)C1 (single isomer, unassigned) [Example 41B, 5-((7-(5-((5-fluoro-2′-isopropyl-[1,1′-biphenyl]-2-yl)oxy)pyrimidin-4-yl)-2,7-diazaspiro[4.4]nonan-2-yl)methyl)-1H-benzo[d]imidazol-2(3H)-one] the IC50 [1] was < 100 nM and the EC50 ([2]; 72 h) was < 100 nM.

CC(C)n1nc(C(F)(F)F)cc1-c1cc(F)ccc1Oc1cncnc1N1CCC2(CCN(Cc3ccc4[nH]c(=O)[nH]c4c3)C2)C1 (stereo not shown) [Example 217, 5-((7-(5-(4-fluoro-2-(1-isopropyl-3-(trifluoromethyl)-1H-pyrazol-5-yl)phenoxy)pyrimidin-4-yl)-2,7-diazaspiro[4.4]nonan-2-yl)methyl)-1,3-dihydro-2H-benzo[d]imidazol-2-one] was tested, and the IC50 [1] was < 100 nM and the EC50 ([2]; Homo sapiens, MV4-11, 72 h) was < 100 nM.

In the case of N#Cc1ccc(-c2cc(F)ccc2Oc2cncnc2N2CC3(CN(CC4CCOCC4)C3)C2)c(C2CC2)c1 [Example 215, 2-cyclopropyl-5′-fluoro-2′-((4-(6-((tetrahydro-2H-pyran-4-yl)methyl)-2,6-diazaspiro[3.3]heptan-2-yl)pyrimidin-5-yl)oxy)-[1,1′-biphenyl]-4-carbonitrile], the IC50 [1] is reported as < 100 nM and the EC50 ([2]; Homo sapiens, MV4-11, 72 h) is reported as 100 to 1000 nM.

With COCCn1c(=O)[nH]c2cc(CN3CCC4(CCN(c5ncncc5Oc5ccc(F)cc5C(=O)N(C)C(C)C)C4)C3)ccc21 (stereo not shown) [Example 129, 5-fluoro-N-isopropyl-2-((4-(7-((1-(2-methoxyethyl)-2-oxo-2,3-dihydro-1H-benzo[d]imidazol-5-yl)methyl)-2,7-diazaspiro[4.4]nonan-2-yl)pyrimidin-5-yl)oxy)-N-methyl-benzamide] the IC50 [1] was < 100 nM and the EC50 ([2]; Homo sapiens, MV4-11, 72 h) was 100 to 1000 nM.

In the case of COCCn1c(=O)[nH]c2cc(CN3CCC4(CCN(c5ncncc5Oc5ccc(F)cc5-c5cncnc5C(C)C)C4)C3)ccc21 (stereo not shown) [Example 131, 5-((7-(5-(4-fluoro-2-(4-isopropylpyrimidin-5-yl)phenoxy)pyrimidin-4-yl)-2,7-diazaspiro[4.4]nonan-2-yl)methyl)-1-(2-methoxyethyl)-1,3-dihydro-2H-benzo[d]imidazol-2-one], the IC50 [1] is reported as < 100 nM and the EC50 ([2]; Homo sapiens, MV4-11, 72 h) is reported as < 100 nM.

In the case of CC(C)N(C(=O)c1cc(F)ccc1Oc1cncnc1N1CCC2(CC(O)C(Cc3ccc4[nH]c(=O)[nH]c4c3)C2)C1)C(C)C (single isomer, unassigned) [Example 23A, 5-fluoro-2-((4-(7-hydroxy-8-((2-oxo-2,3-dihydro-1H-benzo[d]imidazol-5-yl)methyl)-2-azaspiro[4.4]nonan-2-yl)pyrimidin-5-yl)oxy)-N,N-diisopropylbenzamide], the IC50 [1] is reported as < 100 nM and the EC50 ([2]; 72 h) is reported as 100 to 1000 nM.

For CC(C)c1ncncc1-c1cc(F)ccc1Oc1cncnc1N1CC2(CCN(C(=O)Cc3ccc(C#N)cc3)C2)C1 [Example 149, 4-(2-(2-(5-(4-fluoro-2-(4-isopropylpyrimidin-5-yl)phenoxy)pyrimidin-4-yl)-2,6-diazaspiro[3.4]octan-6-yl)-2-oxoethyl)benzonitrile], the IC50 [1] was < 100 nM and the EC50 ([2]; Homo sapiens, MV4-11, 72 h) was < 100 nM.

In the case of CC(C)Oc1ncccc1-c1cc(F)ccc1Oc1cncnc1N1CC2(CN(CC3CCOCC3)C2)C1 [Example 162, 2-(5-(4-fluoro-2-(2-isopropoxypyridin-3-yl)phenoxy)pyrimidin-4-yl)-6-((tetrahydro-2H-pyran-4-yl)methyl)-2,6-diazaspiro[3.3]heptane], the IC50 [1] is reported as < 100 nM and the EC50 ([2]; Homo sapiens, MV4-11, 72 h) is reported as 100 to 1000 nM.

For O=c1[nH]c2ccc(CN3CCC4(CCN(c5ncncc5Oc5ccc(F)cc5OCc5ccccc5)C4)C3)cc2[nH]1 (stereo not shown) [Example 208, 5-((7-(5-(2-(benzyloxy)-4-fluorophenoxy)pyrimidin-4-yl)-2,7-diazaspiro [4.4]nonan-2-yl)methyl)-1,3-dihydro-2H-benzo[d]imidazol-2-one], the IC50 [1] was < 100 nM and the EC50 ([2]; Homo sapiens, MV4-11, 72 h) was ≥ 1000 nM.

In the case of Cn1c(-c2cc(F)ccc2Oc2cncnc2N2CC3(CCN(CC4CCC(NS(C)(=O)=O)CC4)CC3)C2)c(C2CC2)ccc1=O (stereo not shown) [Example 80, N-(4-((2-(5-(2-(3-cyclopropyl-1-methyl-6-oxo-1,6-dihydropyridin-2-yl)-4-fluorophenoxy)pyrimidin-4-yl)-2,7-diazaspiro[3.5]nonan-7-yl)methyl)cyclohexyl) methanesulfon-amide], the IC50 [1] is reported as < 100 nM and the EC50 ([2]; Homo sapiens, MV4-11, 72 h) is reported as < 100 nM.

CC(C)C(=O)N(C)c1cc(F)ccc1Oc1cncnc1N1CCC2(CCN(Cc3ccc4[nH]c(=O)[nH]c4c3)C2)C1 (stereo not shown) [Example 76, N-(5-fluoro-2-((4-(7-((2-oxo-2,3-dihydro-1H-benzo[d]imidazol-5-yl)methyl)-2,7-diazaspiro[4.4]nonan-2-yl)pyrimidin-5-yl)oxy)phenyl)-N-methylisobutyramide] was tested, and the IC50 [1] was < 100 nM and the EC50 ([2]; Homo sapiens, MV4-11, 72 h) was < 100 nM.

CC(C)N(C)C(=O)c1cc(F)ccc1Oc1cncnc1N1CC2(CC(NC3CCOCC3)C2)C1 [Example 92, 5-fluoro-N-isopropyl-N-methyl-2-((4-(6-((tetrahydro-2H-pyran-4-yl)amino)-2-azaspiro[3.3]heptan-2-yl)pyrimidin-5-yl)oxy)benzamide] was tested, and the IC50 [1] was < 100 nM and the EC50 ([2]; Homo sapiens, MV4-11, 72 h) was 100 to 1000 nM.

With CC(C)c1ncncc1-c1cc(F)ccc1Oc1cncnc1N1CCC2(CCN(Cc3ccc4c(c3)NC(=O)C4(C)C)C2)C1 (stereo not shown) [Example 178, 6-((7-(5-(4-fluoro-2-(4-isopropylpyrimidin-5-yl)phenoxy)pyrimidin-4-yl)-2,7-diazaspiro[4.4]nonan-2-yl)methyl)-3,3-dimethylindolin-2-one] the IC50 [1] was < 100 nM and the EC50 ([2]; Homo sapiens, MV4-11, 72 h) was < 100 nM.

For CC(C)N(C(=O)c1cc(F)ccc1Oc1cncnc1N1CCC2(CCN(Cc3ccc4c(c3)[nH]c(=O)n4CCO)C2)C1)C(C)C (single isomer, unassigned) [Example 3A, 5-fluoro-2-((4-(7-((1-(2-hydroxyethyl)-2-oxo-2,3-dihydro-1H-benzo[d]imidazol-5-yl)methyl)-2,7-diazaspiro[4.4]nonan-2-yl)pyrimidin-5-yl)oxy)-N,N-diisopropylbenzamide], the IC50 [1] was < 100 nM and the EC50 ([2]; Homo sapiens, MV4-11, 72 h) was < 100 nM.

For CC1CCC(C)N1C(=O)c1cc(F)ccc1Oc1cncnc1N1CCC2(CCN(Cc3ccc4[nH]c(=O)[nH]c4c3)C2)C1 (stereo not shown) [Example 153, 5-((7-(5-(2-(2,5-dimethylpyrrolidine-1-carbonyl)-4-fluorophenoxy)pyrimidin-4-yl)-2,7-diazaspiro[4.4]nonan-2-yl)methyl)-1,3-dihydro-2H-benzo[d]imidazol-2-one], the IC50 [1] was < 100 nM and the EC50 ([2]; Homo sapiens, MV4-11, 72 h) was 100 to 1000 nM.

With CC(C)N(C(=O)c1cc(F)ccc1Oc1cncnc1N1CC2(CCN(CC3CCC(O)CC3)C2)C1)C(C)C (stereo not shown) [Example 99, 5-fluoro-2-((4-(6-((4-hydroxycyclohexyl)methyl)-2,6-diazaspiro[3.4]octan-2-yl)pyrimidin-5-yl)oxy)-N,N-diisopropylbenzamide] the IC50 [1] was < 100 nM and the EC50 ([2]; Homo sapiens, MV4-11, 72 h) was 100 to 1000 nM.

For CC(C)N(C(=O)c1cc(F)ccc1Oc1cncnc1N1CCC2(CC(O)C(Cc3ccc4[nH]c(=O)[nH]c4c3)C2)C1)C(C)C (single isomer, unassigned) [Example 23C, 5-fluoro-2-((4-(7-hydroxy-8-((2-oxo-2,3-dihydro-1H-benzo[d]imidazol-5-yl)methyl)-2-azaspiro[4.4]nonan-2-yl)pyrimidin-5-yl)oxy)-N,N-diisopropylbenzamide], the IC50 [1] was < 100 nM and the EC50 ([2]; 72 h) was ≥ 1000 nM.

In the case of CC(C)N(C(=O)c1cc(F)ccc1Oc1cncnc1N1CC2(CCN(C[C@H]3CC[C@@H](NS(C)(=O)=O)CC3)CC2)C1)C(C)C [Example 6B, 5-fluoro-N,N-diisopropyl-2-((4-(7-(((1s,4s)-4-(methylsulfonamido)cyclohexyl)methyl)-2,7-diazaspiro[3.5]nonan-2-yl)pyrimidin-5-yl)oxy)benzamide], the IC50 [1] is reported as < 100 nM and the EC50 ([2]; Homo sapiens, MV4-11, 72 h) is reported as < 100 nM.

For CC(C)N(C(=O)c1cc(F)ccc1Oc1cncnc1N1CC2(CCN(C[C@H]3CC[C@H](NS(C)(=O)=O)CC3)CC2)C1)C(C)C [Example 6A, 5-fluoro-N,N-diisopropyl-2-((4-(7-(((1r,4r)-4-(methylsulfonamido)cyclohexyl)methyl)-2,7-diazaspiro[3.5]nonan-2-yl)pyrimidin-5-yl)oxy)benzamide], the IC50 [1] was < 100 nM and the EC50 ([2]; Homo sapiens, MV4-11, 72 h) was < 100 nM.

In the case of CC(C)C(=O)N(CC(F)(F)F)c1cc(F)ccc1Oc1cncnc1N1CCC2(CCN(Cc3ccc4[nH]c(=O)[nH]c4c3)C2)C1 (stereo not shown) [Example 187, N-(5-fluoro-2-((4-(7-((2-oxo-2,3-dihydro-1H-benzo[d]imidazol-5-yl)methyl)-2,7-diazaspiro[4.4]nonan-2-yl)pyrimidin-5-yl)oxy)phenyl)-N-(2,2,2-trifluoroethyl)iso-butyramide], the IC50 [1] is reported as < 100 nM and the EC50 ([2]; Homo sapiens, MV4-11, 72 h) is reported as < 100 nM.
